Earlier results, collected in patent US9320732B2, “1,2,5-oxadiazoles as inhibitors of indoleamine 2,3-dioxygenase” (Incyte Corporation, priority 2008, dated 2016).

What was measured:
P815 tumor = settings: immune-competent pre-immunized mice
LLC tumors = settings: C57Bl/6 mice, versus placebo
[1] = tested on: allogeneic concepti in pregnant mice; settings: pregnant mice exposed to 1MT

In the case of `Cn1cc(C[C@H](N)C(=O)O)c2ccccc21` [Example 1-MT, 1-methyl-tryptophan], the “growth of tumors in pre-immunization model” value (P815 tumor) is given as “inhibited”, the “formation of LLC tumors” value (LLC tumors) is given as “markedly delayed” and the “rejection of allogeneic concepti” value [1] is given as “rapid, T cell-induced rejection of all allogeneic concepti”.
